# Patent US8952150B2, “Prostaglandin transporter inhibitors and uses thereof” (Albert Einstein College of Medicine of Yeshiva University, priority 2009, dated 2015)
# Molecular target: rat PGT (Rattus norvegicus (Rat), UniProt Q00910)
# Experiment: [3H]PGE2 uptake inhibition in MDCK cells stably transfected with rat PGT (percent inhibition and IC50)
# Format: cell-based
# Conditions: for Inh (% of Ctl) 0.1 μM: 0.1 μM compound; for Inh (% of Ctl) 0.1 μM / Inh (% of Ctl) 0.5 μM / Inh (% of Ctl) 1 μM / Inh (% of Ctl) 5 μM / Inh (% of Ctl) 10 μM / Inh (% of Ctl) 2.5 μM: inhibition of [3H]PGE2 uptake; for Inh (% of Ctl) 0.5 μM: 0.5 μM compound; for IC50: [3H]PGE2 uptake, MDCK cells stably transfected with rat PGT; for Inh (% of Ctl) 1 μM: 1 μM compound; for Inh (% of Ctl) 5 μM: 5 μM compound; for Inh (% of Ctl) 10 μM: 10 μM compound; for Inh (% of Ctl) 2.5 μM: 2.5 μM compound
# Procedure: MDCK cells stably transfected with rat PGT (Endo et al., 2002) were seeded at 15-20% confluence on 24-well plates. The day on which the cells were seeded was considered day 1. PGE2 uptake experiments were conducted on day 4. All of the PGE2 uptake experiments were conducted at room temperature. On day 4, cells were washed twice with Waymouth buffer (135 mM NaCl, 13 mM H-Hepes, 13 mM Na-Hepes, 2.5 mM CaCl2, 1.2 mM MgCl2, 0.8 mM MgSO4, 5 mM KCl, and 28 mM D-glucose). Then 200 μL of Waymouth buffer containing [^3H]PGE2 (purchased from Perkin Elmer) was added to each well. At the designed time, the uptake of [^3H]PGE2 was stopped by aspiration of uptake buffer; this was followed by immediate washing twice with 500 μL of chilled Waymouth buffer. Cells were then lysed with 100 μL lysis buffer containing 0.25% SDS and 0.05 N NaOH. 1.5 mL of scintillation solution was added to each well, and intracellular [^3H]PGE2 was counted by MicroBeta Counter.
# For preliminary testing of the compounds, 20 μL of Waymouth buffer containing the compound was added to each well; this was immediately followed by the addition of 180 μL of Waymouth buffer containing [^3H]PGE2. In each well, the total volume of uptake medium was 200 μL. Organic compounds were first dissolved in EtOH and then diluted in Waymouth buffer. The percent inhibition of [^3H]PGE2 uptake by compounds was calculated as [(uptakevehicle−uptakeinhibitor)÷(uptakevehicle)]×100.
# IC50 was calculated by fitting an equation of y=m1−m1*(m0/(m2+m0)).
SMILES,Inh (% of Ctl) 0.1 μM,Inh (% of Ctl) 0.5 μM,IC50,Inh (% of Ctl) 1 μM,Inh (% of Ctl) 5 μM,Inh (% of Ctl) 10 μM,Inh (% of Ctl) 2.5 μM
O=C(O)c1ccc(CNc2nc(NCCOCCOCCNC(=O)c3ccccc3)nc(Nc3ccc(C(=O)NCc4ccccc4)cc3)n2)cc1 [compound 121],1.0 % of Ctl,28.8 % of Ctl,,,,,
O=C(O)C(F)(F)F.[N-]=[N+]=NCCOCCOCCNC(=O)c1ccc(Nc2nc(NCCOCCOCCNC(=O)c3ccccc3)nc(Nc3ccc(O)cc3)n2)cc1 [compound 8],,52.3 % of Ctl,224 nM,,,,
O=C(NCCOCCOCCNc1nc(Nc2ccccc2)nc(Nc2ccc3[nH]nnc3c2)n1)c1ccccc1 [compound 95],,,,1.9 % of Ctl,23.4 % of Ctl,50.4 % of Ctl,
O=C(NCCOCCOCCNc1nc(Nc2ccc(O)cc2)nc(Nc2ccc(C(=O)NCc3ccccc3F)cc2)n1)c1ccccc1 [compound 110],69.6 % of Ctl,60.6 % of Ctl,31.3 nM,,93.6 % of Ctl,,78.3 % of Ctl
COC(=O)CCCCCCNC(=O)c1ccc(Nc2nc(NCCOCCOCCNC(=O)c3ccccc3)nc(Nc3ccc(O)cc3)n2)cc1 [compound 43],,,1300 nM,34.8 % of Ctl,,84.1 % of Ctl,
COC(=O)c1ccc(Nc2nc(NCCOCCOCCNC(=O)c3ccccc3)nc(Nc3ccccc3)n2)cc1 [compound 61],,,,7.5 % of Ctl,,46.1 % of Ctl,
O=C(NCCOCCOCCNc1nc(Cl)nc(Nc2ccc(OCc3ccccc3)cc2)n1)c1ccccc1 [compound 3],,0.4 % of Ctl,,,1.7 % of Ctl,,
CCCCCCNC(=O)c1ccc(Nc2nc(NCCOCCNC(=O)c3ccccc3)nc(Nc3ccc(O)cc3)n2)cc1 [compound 119],57.2 % of Ctl,81.4 % of Ctl,,,,,
O=C(NCCOCCOCCNc1nc(Nc2ccc(O)cc2)nc(Nc2ccc(CO)cc2)n1)c1ccccc1 [compound 26],,2.6 % of Ctl,,,35.2 % of Ctl,,
COC(=O)c1ccc(Nc2nc(NCCOCCOCCNC(=O)c3ccccc3)nc(Nc3ccc(O)cc3)n2)cc1 [compound 17],,22.0 % of Ctl,6570 nM,,55.6 % of Ctl,,
O=C(NCc1ccccc1)c1ccc(Nc2nc(NCCOCCNC(=O)c3ccccc3C(F)(F)F)nc(Nc3ccc(O)cc3)n2)cc1 [compound 134],14.0 % of Ctl,27.7 % of Ctl,,46.7 % of Ctl,,,
COc1ccc(CNC(=O)c2ccc(Nc3nc(NCCOCCOCCNC(=O)c4ccccc4)nc(Nc4ccc(O)cc4)n3)cc2)cc1 [compound 92],,33.7 % of Ctl,,,80.6 % of Ctl,,71.3 % of Ctl
O=C(O)Cc1ccc(Nc2nc(NCCOCCOCCNC(=O)c3ccccc3)nc(Nc3ccccc3)n2)cc1 [compound 57],,,5570 nM,27.4 % of Ctl,29.5 % of Ctl,56.6 % of Ctl,
O=C(NCCOCCOCCNc1nc(Nc2ccc(O)cc2)nc(Nc2ccc(C(=O)NCc3ccccc3)cc2)n1)c1ccccc1 [compound 83],,4.1 % of Ctl,609 nM,,42.0 % of Ctl,,10.4 % of Ctl
O=C(NCCOCCOCCNc1nc(Nc2ccc(O)cc2)nc(Nc2ccc(C(=O)NCc3ccc(F)c(F)c3)cc2)n1)c1ccccc1 [compound 129],8.9 % of Ctl,45.1 % of Ctl,,65.6 % of Ctl,,,
NCCOCCOCCNc1nc(Nc2ccccc2)nc(Nc2ccc(O)cc2)n1 [compound 45],,,,5.0 % of Ctl,,12.9 % of Ctl,

SMILES,Inh (% of Ctl) 0.1 μM,Inh (% of Ctl) 0.5 μM,IC50,Inh (% of Ctl) 1 μM,Inh (% of Ctl) 5 μM,Inh (% of Ctl) 10 μM,Inh (% of Ctl) 2.5 μM
O=C(NCc1ccc(F)cc1)c1ccc(Nc2nc(Nc3ccc(O)cc3)nc(Nc3ccc(CNCc4ccccc4)cc3)n2)cc1 [compound 149],3.8 % of Ctl,9.1 % of Ctl,,17.6 % of Ctl,,,
COC(=O)COCCOCCNc1nc(Nc2ccccc2)nc(Nc2ccc(O)cc2)n1 [compound 49],,,,1.7 % of Ctl,,12.5 % of Ctl,
O=C(O)c1cccc(Nc2nc(NCCOCCOCCNC(=O)c3ccccc3)nc(Nc3ccc(C(=O)NCc4ccc(F)cc4)cc3)n2)c1 [compound 150],4.2 % of Ctl,14.3 % of Ctl,,23.9 % of Ctl,,,
CN(c1ccc(C(=O)NCc2ccccc2)cc1)c1nc(NCCOCCOCCNC(=O)c2ccccc2)nc(Nc2ccc(O)cc2)n1 [compound 124],68.8 % of Ctl,85.4 % of Ctl,34 nM,,,,
O=C(NCCOCCOCCNc1nc(O)nc(Nc2ccc(O)cc2)n1)c1ccccc1 [compound 12],,2.8 % of Ctl,,,4.7 % of Ctl,,
O=C(NCCOCCOCCNc1nc(Nc2ccccc2)nc(Nc2ccc(O)cc2)n1)c1ccccc1 [compound 4],,7.0 % of Ctl,4850 nM,32.4 % of Ctl,67.6 % of Ctl,81.5 % of Ctl,
O=C(NCCOCCOCCNc1nc(Nc2ccccc2)nc(Nc2ccc(O)cc2)n1)c1ccc(-c2ccccc2)cc1 [compound 40],,,,16.3 % of Ctl,,46.9 % of Ctl,
O=C(NCCOCCOCCNc1nc(Nc2ccccc2)nc(Nc2ccc(O)cc2)n1)Nc1ccccc1 [compound 42],,,,22.8 % of Ctl,,57.6 % of Ctl,
O=C(NCCOCCOCCNc1nc(Nc2ccc(O)cc2)nc(Nc2ccc(C(=O)NCc3ccccc3Cl)cc2)n1)c1ccccc1 [compound 106],68.4 % of Ctl,64.8 % of Ctl,,,93.1 % of Ctl,,68.8 % of Ctl
CNC(=O)c1ccc(Nc2nc(NCCOCCOCCNC(=O)c3ccccc3)nc(Nc3ccc(O)cc3)n2)cc1 [compound 14],,10.6 % of Ctl,,,35.9 % of Ctl,,
O=C(NCCOCCOCCNc1nc(Nc2ccc(O)cc2)nc(Nc2ccc(N3CCOCC3)cc2)n1)c1ccccc1 [compound 24],,1.7 % of Ctl,,,9.2 % of Ctl,,
O=C(NCCOCCOCCNc1nc(Nc2ccc(O)cc2)nc(Nc2ccc(C(=O)NCc3ccc(C(F)(F)F)cc3)cc2)n1)c1ccccc1 [compound 113],36.8 % of Ctl,49.2 % of Ctl,,,92.4 % of Ctl,,84.1 % of Ctl
CN(C)C(=O)c1ccc(Nc2nc(NCCOCCOCCNC(=O)c3ccccc3)nc(Nc3ccc(O)cc3)n2)cc1 [compound 15],,15.0 % of Ctl,,,16.6 % of Ctl,,
NC(=O)c1ccc(Nc2nc(NCCOCCOCCNC(=O)c3ccccc3)nc(Nc3ccc(O)cc3)n2)cc1 [compound 20],,9.6 % of Ctl,,,14.4 % of Ctl,,
O=C(NCCOCCOCCNc1nc(Nc2ccc(O)cc2)nc(Nc2ccc(C(=O)NCc3ccccc3-c3ccccc3)cc2)n1)c1ccccc1 [compound 86],50.0 % of Ctl,70.7 % of Ctl,870 nM,,86.4 % of Ctl,,81.4 % of Ctl
COC(=O)[C@@H](NC(=O)c1ccc(Nc2nc(NCCOCCOCCNC(=O)c3ccccc3)nc(Nc3ccc(O)cc3)n2)cc1)c1ccccc1 [compound 74],45.0 % of Ctl,51.6 % of Ctl,,,82.0 % of Ctl,,56.9 % of Ctl
